# Measured values taken from patent US8840866B2, “Styrylpyridine derivatives and their use for binding and imaging amyloid plaques” (The Trustees of the University of Pennsylvania, priority 2006, dated 2014).
# Tests used:
# Aβ plaques = test: Film autoradiography of postmortem AD brain sections; format: binding, human
# Experimental: [^18F]tracers: Brain sections from AD subjects were obtained by freezing the brain in powdered dry ice and cut into 20 micrometer-thick sections. The sections were incubated with [^18F]tracers (200,000-250,000 cpm/200 μl) for 1 hr at room temperature. The sections were then dipped in saturated Li2CO3 in 40% EtOH (two two-minute washes) and washed with 40% EtOH (one two-minute wash) followed by rinsing with water for 30 sec. After drying, the ^18F-labeled sections were exposed to Kodak MR film overnight.
# [1] = target: amyloid plaques in AD brain homogenates (Homo sapiens, UniProt P05067); details: displacement of 125I-IMPY binding
# Experimental: Values represent potencies (Ki) of compounds for displacement of ^125I-IMPY binding to amyloid plaques in AD brain homogenates.
# Competition binding assays were carried out in 12×75 mm borosilicate glass tubes. The reaction mixture contained 50 μl of pooled AD brain homogenates (20-50 μg), 50 μl of [^125I]IMPY (0.04-0.06 nM diluted in PBS) and 50 μl of inhibitors (10^−5-10^10 M diluted serially in PBS containing 0.1% bovine serum albumin) in a final volume of 1 ml. Nonspecific binding was defined in the presence of 600 nM IMPY in the same assay tubes. The mixture was incubated at 37° C. for 2 h and the bound and the free radioactivity were separated by vacuum filtration through Whatman GF/B filters using a Brandel M-24R cell harvester followed by 2×3 ml washes of PBS at room temperature. Filters containing the bound 1-125 ligand were counted in a gamma counter (Packard 5000) with 70% counting efficiency. Under the assay conditions, the specifically bound fraction was less than 15% of the total radioactivity. The results of inhibition experiments were subjected to nonlinear regression analysis using equilibrium binding data analysis from which Ki values were calculated.
# [2] = Organ distribution in normal ICR mice after iv injection of radiolabeled tracer; format: in vivo
# Experimental: The mice (n=3 for each time point) were sacrificed by cervical dislocation at designated time-points post injection. The organs of interest were removed and weighed, and the radioactivity was counted with an automatic gamma counter. The percentage dose per organ was calculated by a comparison of the tissue counts to suitably diluted aliquots of the injected material. The total activity of the blood was calculated under the assumption that it is 7% of the total body weight. The % dose/g of samples was calculated by comparing the sample counts with the count of the diluted initial dose.
# [3] = test system: pooled AD and control brain tissue homogenates; test: Specific binding of [18F]2 to pooled AD and control brain tissue homogenates; set-up: species or system human
# From the text: FIG. 8 depicts specific binding of [^18F]2 to pooled AD and control brain tissue homogenates. Gray and white matters were dissected from the cortical regions. […] The values presented are the mean±SEM of six measurements.
# fibrillar Aβ aggregates = fibrillar Aβ aggregates (Homo sapiens, UniProt P05067); details: Mathis et al. 1997; read-out: inhibition constants (Ki) for binding to fibrillar Aβ aggregates; cited from earlier work
# [4] = 5% EtOH in saline, 2 min, first organ list r6-r15
# [5] = 5% EtOH in saline, 2 min, second organ list r16-r25
# [6] = 5% EtOH in saline, 30 min, first organ list r6-r15
# [7] = 5% EtOH in saline, 30 min, second organ list r16-r25
# [8] = 5% EtOH in saline, 1 hr, first organ list r6-r15
# [9] = 5% EtOH in saline, 1 hr, second organ list r16-r25
# [10] = 5% EtOH in saline, 2 hr, first organ list r6-r15
# [11] = 5% EtOH in saline, 2 hr, second organ list r16-r25
# Sequence of amyloid plaques in AD brain homogenates (P05067 672-711): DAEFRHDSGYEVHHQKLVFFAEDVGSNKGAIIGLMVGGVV
# Sequence of fibrillar Aβ aggregates (P05067 672-711 limits assumed): as the sequence (P05067 672-711) above
structure (smiles),measurement,setting,value
"CN(C)c1ccc(/C=C/c2ccc(OCCOCCOCCF)nc2)cc1 [Compound 2, (E)-2-(2-(2-(2-fluoroethoxy)ethoxy)ethoxy)-5-(4-dimethylaminostyryl)pyridine]",autoradiography result,Aβ plaques,confirmed the specific binding related to the presence of Aβ plaques
same,Ki,[1],2.5 ± 0.4 nM
"CN(C)c1ccc(/C=C/c2cnc(OCCO)c(I)c2)cc1 [[^125I]16a, (E)-[5-Iodo-6-(2-hydroxyethoxy)pyridin-3-yl]-2-(4-dimethylaminophenyl)-ethylene]",Biodistribution: Blood,"[2]; [125I]-labeled tracer, 2 min",2.71 ± 0.07 % dose/g
same,Biodistribution: Brain,"[2]; [125I]-labeled tracer, 2 min",5.43 ± 0.85 % dose/g
same,Biodistribution: Heart,"[2]; [125I]-labeled tracer, 2 min",10.24 ± 0.45 % dose/g
same,Biodistribution: Kidney,"[2]; [125I]-labeled tracer, 2 min",14.25 ± 1.98 % dose/g
same,Biodistribution: Liver,"[2]; [125I]-labeled tracer, 2 min",19.12 ± 2.68 % dose/g
same,Biodistribution: Lung,"[2]; [125I]-labeled tracer, 2 min",9.41 ± 0.56 % dose/g
same,Biodistribution: Muscle,"[2]; [125I]-labeled tracer, 2 min",0.71 ± 0.46 % dose/g
same,Biodistribution: Skin,"[2]; [125I]-labeled tracer, 2 min",0.46 ± 0.13 % dose/g
same,Biodistribution: Spleen,"[2]; [125I]-labeled tracer, 2 min",4.40 ± 1.89 % dose/g
same,Biodistribution: Thyroid,"[2]; [125I]-labeled tracer, 2 min",4.15 ± 0.43 % dose/g
same,Biodistribution: Blood,"[2]; [125I]-labeled tracer, 30 min",2.24 ± 0.38 % dose/g
same,Biodistribution: Brain,"[2]; [125I]-labeled tracer, 30 min",3.56 ± 0.32 % dose/g
same,Biodistribution: Heart,"[2]; [125I]-labeled tracer, 30 min",1.93 ± 0.27 % dose/g
same,Biodistribution: Kidney,"[2]; [125I]-labeled tracer, 30 min",4.19 ± 0.45 % dose/g
same,Biodistribution: Liver,"[2]; [125I]-labeled tracer, 30 min",12.38 ± 1.29 % dose/g
same,Biodistribution: Lung,"[2]; [125I]-labeled tracer, 30 min",3.02 ± 0.38 % dose/g
same,Biodistribution: Muscle,"[2]; [125I]-labeled tracer, 30 min",1.05 ± 0.20 % dose/g
same,Biodistribution: Skin,"[2]; [125I]-labeled tracer, 30 min",1.18 ± 0.26 % dose/g
same,Biodistribution: Spleen,"[2]; [125I]-labeled tracer, 30 min",1.94 ± 0.19 % dose/g
same,Biodistribution: Thyroid,"[2]; [125I]-labeled tracer, 30 min",11.21 ± 7.88 % dose/g
same,Biodistribution: Blood,"[2]; [125I]-labeled tracer, 1 hr",2.18 ± 0.66 % dose/g
same,Biodistribution: Brain,"[2]; [125I]-labeled tracer, 1 hr",1.32 ± 0.00 % dose/g
same,Biodistribution: Heart,"[2]; [125I]-labeled tracer, 1 hr",1.12 ± 0.02 % dose/g
same,Biodistribution: Kidney,"[2]; [125I]-labeled tracer, 1 hr",2.49 ± 0.33 % dose/g
same,Biodistribution: Liver,"[2]; [125I]-labeled tracer, 1 hr",6.22 ± 0.96 % dose/g
same,Biodistribution: Lung,"[2]; [125I]-labeled tracer, 1 hr",1.98 ± 0.21 % dose/g
same,Biodistribution: Muscle,"[2]; [125I]-labeled tracer, 1 hr",0.55 ± 0.03 % dose/g
same,Biodistribution: Skin,"[2]; [125I]-labeled tracer, 1 hr",1.16 ± 0.00 % dose/g
same,Biodistribution: Spleen,"[2]; [125I]-labeled tracer, 1 hr",1.32 ± 0.10 % dose/g
same,Biodistribution: Thyroid,"[2]; [125I]-labeled tracer, 1 hr",59.13 ± 6.26 % dose/g
same,Biodistribution: Blood,"[2]; [125I]-labeled tracer, 2 hr",1.01 ± 0.02 % dose/g
same,Biodistribution: Brain,"[2]; [125I]-labeled tracer, 2 hr",0.46 ± 0.05 % dose/g
same,Biodistribution: Heart,"[2]; [125I]-labeled tracer, 2 hr",0.62 ± 0.12 % dose/g
same,Biodistribution: Kidney,"[2]; [125I]-labeled tracer, 2 hr",1.48 ± 0.20 % dose/g
same,Biodistribution: Liver,"[2]; [125I]-labeled tracer, 2 hr",4.87 ± 0.46 % dose/g
same,Biodistribution: Lung,"[2]; [125I]-labeled tracer, 2 hr",1.00 ± 0.15 % dose/g
same,Biodistribution: Muscle,"[2]; [125I]-labeled tracer, 2 hr",0.22 ± 0.04 % dose/g
same,Biodistribution: Skin,"[2]; [125I]-labeled tracer, 2 hr",0.40 ± 0.05 % dose/g
same,Biodistribution: Spleen,"[2]; [125I]-labeled tracer, 2 hr",0.80 ± 0.11 % dose/g
same,Biodistribution: Thyroid,"[2]; [125I]-labeled tracer, 2 hr",24.81 ± 0.62 % dose/g
"CN(C)c1ccc(/C=C/c2ccc(OCCOCCOCCF)nc2)cc1 [[^18F]2, (E)-2-(2-(2-(2-fluoroethoxy)ethoxy)ethoxy)-5-(4-dimethylaminostyryl)pyridine]",specific binding,"[3]; AD brain homogenates, gray matter",High specific binding
same,specific binding,"[3]; AD brain, white matter homogenates",Relatively low binding
same,specific binding,"[3]; control brain homogenates, grey or white matter",significantly lower specific binding
same,Biodistribution: Blood,[2]; [4],6.05 ± 0.33 % dose/g
same,Biodistribution: Bone,[2]; [4],5.97 ± 0.56 % dose/g
same,Biodistribution: Brain,[2]; [4],3.49 ± 0.58 % dose/g
same,Biodistribution: Heart,[2]; [4],0.75 ± 0.14 % dose/g
same,Biodistribution: Kidney,[2]; [4],6.38 ± 0.95 % dose/g
same,Biodistribution: Liver,[2]; [4],24.90 ± 1.49 % dose/g
same,Biodistribution: Lung,[2]; [4],1.07 ± 0.20 % dose/g
same,Biodistribution: Muscle,[2]; [4],7.03 ± 1.30 % dose/g
same,Biodistribution: Skin,[2]; [4],2.52 ± 0.24 % dose/g
same,Biodistribution: Spleen,[2]; [4],0.43 ± 0.11 % dose/g
same,Biodistribution: Blood,[2]; [5],3.04 ± 0.29 % dose/g
same,Biodistribution: Bone,[2]; [5],1.49 ± 0.08 % dose/g
same,Biodistribution: Brain,[2]; [5],7.77 ± 1.34 % dose/g
same,Biodistribution: Kidney,[2]; [5],14.19 ± 2.34 % dose/g
same,Biodistribution: Liver,[2]; [5],17.00 ± 0.69 % dose/g
same,Biodistribution: Lung,[2]; [5],5.65 ± 0.89 % dose/g
same,Biodistribution: Muscle,[2]; [5],0.62 ± 0.10 % dose/g
same,Biodistribution: Skin,[2]; [5],0.59 ± 0.03 % dose/g
same,Biodistribution: Spleen,[2]; [5],4.65 ± 0.76 % dose/g
same,Biodistribution: Blood,[2]; [6],2.65 ± 0.22 % dose/g
same,Biodistribution: Bone,[2]; [6],2.52 ± 0.34 % dose/g
same,Biodistribution: Brain,[2]; [6],0.48 ± 0.07 % dose/g
same,Biodistribution: Heart,[2]; [6],0.17 ± 0.03 % dose/g
same,Biodistribution: Kidney,[2]; [6],1.68 ± 0.11 % dose/g
same,Biodistribution: Liver,[2]; [6],9.26 ± 0.83 % dose/g
same,Biodistribution: Lung,[2]; [6],0.30 ± 0.01 % dose/g
same,Biodistribution: Muscle,[2]; [6],8.58 ± 0.26 % dose/g
same,Biodistribution: Skin,[2]; [6],3.99 ± 0.34 % dose/g
same,Biodistribution: Spleen,[2]; [6],0.15 ± 0.05 % dose/g
same,Biodistribution: Blood,[2]; [7],1.33 ± 0.16 % dose/g
same,Biodistribution: Bone,[2]; [7],0.63 ± 0.12 % dose/g
same,Biodistribution: Brain,[2]; [7],1.03 ± 0.11 % dose/g
same,Biodistribution: Heart,[2]; [7],1.28 ± 0.16 % dose/g
same,Biodistribution: Kidney,[2]; [7],3.77 ± 0.36 % dose/g
same,Biodistribution: Liver,[2]; [7],7.21 ± 0.69 % dose/g
same,Biodistribution: Lung,[2]; [7],1.73 ± 0.17 % dose/g
same,Biodistribution: Muscle,[2]; [7],0.75 ± 0.04 % dose/g
same,Biodistribution: Skin,[2]; [7],0.93 ± 0.13 % dose/g
same,Biodistribution: Spleen,[2]; [7],1.57 ± 0.51 % dose/g
same,Biodistribution: Blood,[2]; [8],3.48 ± 0.47 % dose/g
same,Biodistribution: Bone,[2]; [8],4.39 ± 0.40 % dose/g
same,Biodistribution: Brain,[2]; [8],0.55 ± 0.10 % dose/g
same,Biodistribution: Heart,[2]; [8],0.22 ± 0.03 % dose/g
same,Biodistribution: Kidney,[2]; [8],1.96 ± 0.21 % dose/g
same,Biodistribution: Liver,[2]; [8],10.52 ± 2.18 % dose/g
same,Biodistribution: Lung,[2]; [8],0.35 ± 0.07 % dose/g
same,Biodistribution: Muscle,[2]; [8],10.62 ± 2.59 % dose/g
same,Biodistribution: Skin,[2]; [8],4.42 ± 0.65 % dose/g
same,Biodistribution: Spleen,[2]; [8],0.13 ± 0.03 % dose/g
same,Biodistribution: Blood,[2]; [9],1.80 ± 0.16 % dose/g
same,Biodistribution: Bone,[2]; [9],1.13 ± 0.01 % dose/g
same,Biodistribution: Brain,[2]; [9],1.28 ± 0.20 % dose/g
same,Biodistribution: Heart,[2]; [9],1.66 ± 0.24 % dose/g
same,Biodistribution: Kidney,[2]; [9],4.29 ± 0.52 % dose/g
same,Biodistribution: Liver,[2]; [9],8.13 ± 1.42 % dose/g
same,Biodistribution: Lung,[2]; [9],1.82 ± 0.31 % dose/g
same,Biodistribution: Muscle,[2]; [9],0.95 ± 0.18 % dose/g
same,Biodistribution: Skin,[2]; [9],1.06 ± 0.09 % dose/g
same,Biodistribution: Spleen,[2]; [9],1.56 ± 0.17 % dose/g
same,Biodistribution: Blood,[2]; [10],2.15 ± 0.25 % dose/g
same,Biodistribution: Bone,[2]; [10],6.49 ± 0.08 % dose/g
same,Biodistribution: Brain,[2]; [10],0.37 ± 0.08 % dose/g
same,Biodistribution: Heart,[2]; [10],0.18 ± 0.08 % dose/g
same,Biodistribution: Kidney,[2]; [10],0.96 ± 1.58 % dose/g
same,Biodistribution: Liver,[2]; [10],6.86 ± 0.59 % dose/g
same,Biodistribution: Lung,[2]; [10],0.20 ± 0.36 % dose/g
same,Biodistribution: Muscle,[2]; [10],5.96 ± 0.06 % dose/g
same,Biodistribution: Skin,[2]; [10],2.91 ± 0.16 % dose/g
same,Biodistribution: Spleen,[2]; [10],0.10 ± 0.17 % dose/g
same,Biodistribution: Blood,[2]; [11],1.08 ± 0.06 % dose/g
same,Biodistribution: Bone,[2]; [11],1.64 ± 0.50 % dose/g
same,Biodistribution: Brain,[2]; [11],0.84 ± 0.08 % dose/g
same,Biodistribution: Heart,[2]; [11],1.32 ± 0.33 % dose/g
same,Biodistribution: Kidney,[2]; [11],2.19 ± 0.36 % dose/g
same,Biodistribution: Liver,[2]; [11],4.96 ± 0.90 % dose/g
same,Biodistribution: Lung,[2]; [11],0.98 ± 0.08 % dose/g
same,Biodistribution: Muscle,[2]; [11],0.52 ± 0.08 % dose/g
same,Biodistribution: Skin,[2]; [11],0.68 ± 0.16 % dose/g
same,Biodistribution: Spleen,[2]; [11],1.14 ± 0.18 % dose/g
"O=C(O)c1cc(/N=N/c2ccc(-c3ccc(/N=N/c4ccc(O)c(C(=O)O)c4)cc3)cc2)ccc1O [CG, chrysamine-G]",Ki,fibrillar Aβ aggregates,370 nM
